In patent publication US10377747B2, “2-arylamino pyridine, pyrimidine or triazine derivatives, preparation method and use thereof” (Wuxi Shuangliang Biotechnology Co., Ltd., priority 2015, dated 2019):

Experiments:
[1] = system: H1975 (non-small-cell lung cancer cells. EGFR L858K/T790M); assay: Tumor cell proliferation and growth inhibition analysis (Cell Titer-Glo, 72 h), H1975; format: cell-based; settings: Homo sapiens, NCI-H1975; H1975 cells, 72 h exposure, Cell Titer-Glo; read-out: H1975 GI50
Excerpt: (§1) […] cell proliferation assay is described as follows.
(§2) Tumor cell proliferation and growth inhibition analysis: H1975 (non-small-cell lung cancer cells. EGFR L858K/T790M) and A431 (human epidermal cancer cells, EGFR wild type) cells were commercially available from the ATCC cell bank. […] The growth medium for A431 cells was DMEM (GIBCO, 11995-065), 10% fetal bovine serum. The influence exerted by the compounds on the proliferation activity of tumor cells was detected by Cell Titer-Glo assay. Tumor cells were exposed to the treatment conditions for 72 h, and the cell density used in each experiment for each cell line was adjusted according to the 72 h cell growth curve. 10 concentration gradients and three-fold dilutions (0.5 nM-10 μM) were set for compounds to be tested, and 3 parallel controls were used for each concentration value.
(§3) Trypsin was used for digesting cells in the logrithmic growth phase to prepare cell suspension, which was counted by a Roche counter and appropriately diluted with complete medium to a final cell concentration of 1˜2×10^3 cell/mL. 384-well plates were seeded with cells, and 22.6 μL were seeded for each well. 3 parallels were set. The plates were incubated in an incubator with 5% CO2 at 37° C. overnight. The compounds were dissolved in DMSO to prepare […] mother liquor. […] 2 μL of compound solution was added into 18 μL of culture medium, and fully mixed. Then 2 μL of mixed solution of compound and culture medium was added into 18 μL of culture medium, and fully mixed. 2.4 μL of mixtures were added into a 384-well plates. […] After cultivation for 72 h, 24 μL of Cell Titer-Glo reagent was added. The contents were mixed on an orbital shaker for 2 min to induce cell lysis. The 384-well plates were incubated at room temperature for 10 min to stabilize the […] signal value. Data was read by Infinite® M1000 PRO (TECAN), and calculated with GraphPad Prism version 5.0. GI50 value was obtained by adjustment using a non-linear regression model of dose response curves.

[2] = system: A431 (human epidermal cancer cells, EGFR wild type); assay: Tumor cell proliferation and growth inhibition analysis (Cell Titer-Glo, 72 h), A431; format: cell-based; settings: A-431, 72 h exposure
Excerpt: as §1, §2, §3

A GI50 [1] of 0.0603 µM and a GI50 [2] greater than 1 µM were found for `C=CC(=O)Nc1cc(Nc2nccc(-c3nn(C)c4ccsc34)n2)c(OC(F)F)cc1N1CC2(CCCN2C)C1` [Example 29, N-(4-(difluoromethoxy)-5-((4-(1-methyl-1H-thieno[3,2-c]pyrazol-3-yl)pyrimidin-2-yl)amino)-2-(5-methyl-2,5-diazaspiro[3.4]oct-2-yl)phenyl)acrylamide] in this work.

A GI50 [1] of 0.0261 µM and a GI50 [2] of 0.299 µM were found for `C=CC(=O)Nc1cc(Nc2nccc(-c3noc4ccccc34)n2)c(OC(F)F)cc1N1CC(N(C)C)C1` [Example 8, N-(5-((4-(benzo[d]isoxazol-3-yl)pyrimidin-2-yl)amino)-4-(difluoromethoxy)-2-(3-(dimethylamino)azetidin-1-yl)phenyl)acylamide] in this work.

A GI50 [1] of 0.844 µM and a GI50 [2] of roughly 63.4 µM were found for `C=CC(=O)Nc1cc(Nc2nccc(-c3noc4ccccc34)n2)c(OC)cc1N1CCC[C@H]1CN(C)C` [Example 4, (S)—N-(5-((4-(benzo[d]isoxazol-3-yl)pyrimidin-2-yl)amino)-2-(2-((dimethno)methyl)pyrrolidin-1-yl)-4-methoxyphenyl)acrylamide] in this work.

A GI50 [1] of 0.11 µM and a GI50 [2] of 2.44 µM were found for `C=CC(=O)Nc1cc(Nc2nccc(-c3cn(C)c4cccnc34)n2)c(OC(F)F)cc1N1CC2(CCCN2C)C1` [Example 23, N-(4-(difluoromethoxy)-5-((4-(1-methyl-1H-pyrrolo[3,2-b]pyridin-3-yl)pyrimidin-2-yl)amino)-2-(5-methyl-2,5diazaspiro[3.4]oct-2-yl)phenyl)acryl amide] in this work.

A GI50 [1] of 0.0094 µM and a GI50 [2] of 0.147 µM were found for `C=CC(=O)Nc1cc(Nc2ncnc(-c3cccc4cc[nH]c34)n2)c(OC)cc1N(C)CCN(C)C` [Example 32, N-(5-((4-(H-indol-7-yl)-1,3,5-triazin-2-yl)amino)-2-((2-(dimethylamino)ethyl)(methyl)amino)-4-methoxyphenyl)acylamide] in this work.

A GI50 [1] of 0.0242 µM and a GI50 [2] greater than 1 µM were found for `C=CC(=O)Nc1cc(Nc2nccc(-c3noc4ccccc34)n2)c(OC(F)F)cc1N1CCC(N(C)C)CC1` [Example 9, N-(5-((4-(benzo[d]isoxazol-3-yl)pyrimidin-2-yl)amino)-4-(difluoromethoxy)-2-(4-(dimethylamino)piperidin-1-yl)phenyl)acrylamide] in this work.

A GI50 [1] of 0.0359 µM and a GI50 [2] of 0.319 µM were found for `C=CC(=O)Nc1cc(Nc2nccc(-c3cn(C)c4cccnc34)n2)c(OC(F)F)cc1N1CCC(N(C)C)CC1` [Example 21, N-(4-(difluoromethoxy)-2-(4-(dimethylamino)piperidin-1-yl)-5-((4-(1-methyl-1H-pyrrolo[3,2-b]pyridin-3-yl)pyrimidin-2-yl)amino)phenyl)acrylamide] in this work.

A GI50 [1] of 0.0076 µM and a GI50 [2] of 0.798 µM were found for `C=CC(=O)Nc1cc(Nc2cc(-n3nc(C)c4ccccc43)ccn2)c(OC)cc1N(C)CCN(C)C` [Example 45, N-(2-((2-(dimethylamino)ethyl)(methyl)amino)-4-methoxy-5-((4-(3-methyl-1H-indazol-1-yl)pyridin-2-yl)amino)phenyl)acrylamide] in this work.

A GI50 [1] of 0.0067 µM and a GI50 [2] of 0.296 µM were found for `C=CC(=O)Nc1cc(Nc2nccc(-c3cn(C)c4cccnc34)n2)c(OC(F)F)cc1N(C)CCN(C)C` [Example 18] in this work.

A GI50 [1] of 0.104 µM and a GI50 [2] of 0.638 µM were found for `C=CC(=O)Nc1cc(Nc2cc(-c3cnc4ccccn34)ccn2)c(OC)cc1N(C)CCN(C)C` [Example 44, N-(2-((2-(dimethylamino)ethyl)(methyl)amino)-5-((4-(imidazo[1,2-a]pyridin-3-yl)pyridin-2-yl)amino)-4-methoxyphenyl)acrylamide] in this work.

A GI50 [1] of 0.0312 µM and a GI50 [2] of 1.22 µM were found for `C=CC(=O)Nc1cc(Nc2nccc(-c3noc4ccccc34)n2)c(OC)cc1N1CC2(CCCN2C)C1` [Example 5, N-(5-((4-(benzo[d]isoxazol-3-yl)pyrimidin-2-yl)amino)-4-methoxy-2-(5-methyl-2,5-diazaspiro[3.4]oct-2-yl)phenyl)acrylamide] in this work.

A GI50 [1] of 0.0191 µM and a GI50 [2] of 0.267 µM were found for `C=CC(=O)Nc1cc(Nc2cc(-c3cnn4cccnc34)ccn2)c(OC)cc1N(C)CCN(C)C` [Example 43, N-(2-((2-(dimethylamino)ethyl)(methyl)amino)-4-methoxy-5-((4-(pyrazolo[1,5-a]pyrimidin-3-yl)pyridin-2-yl)amino)phenyl)acrylamide] in this work.

A GI50 [1] of 0.0212 µM and a GI50 [2] of 0.0152 µM were found for `C=CC(=O)Nc1cc(Nc2ncnc(-n3cnc4ccccc43)n2)c(OC)cc1N(C)CCN(C)C` [Example 39, N-(5-((4-(1H-benzo[d]imidazol-1-yl)-1,3,5-triazin-2-yl)amino)-2-((2-(dimethylamino)ethyl)(methyl)amino)-4-methoxyphenyl)acrylamide] in this work.

A GI50 [1] greater than 1 µM and a GI50 [2] greater than 1 µM were found for `C=CC(=O)Nc1cc(Nc2nccc(-c3cn(C)c4cccnc34)n2)c(OC(F)F)cc1N1CC(N(C)C)C1` [Example 20, N-(4-(difluoromethoxy)-2-(3-(dimethylamino)azetidin-1-yl)-5-((4-(1-methyl-1H-pyrrolo[3,2-b]pyridin-3-yl)pyrimidin-2-yl)amino)phenyl)acrylamide] in this work.

A GI50 [1] of 1.47 µM and a GI50 [2] of roughly 3.52 µM were found for `C=CC(=O)Nc1cc(Nc2nccc(-c3cn(C)c4cccnc34)n2)c(OC)cc1N1CC(N(C)C)C1` [Example 14, N-(2-(3-(dimethylamino)azetidin-1-yl)-4-methoxy-5-((4-(1-methyl-1H-pyrrolo[3,2-b]pyridin-3-yl)pyrimidin-2-yl)amino)phenyl)acrylamide] in this work.

A GI50 [1] of 0.296 µM and a GI50 [2] of 1.13 µM were found for `C=CC(=O)Nc1cc(Nc2nccc(-c3nn(C)c4ccsc34)n2)c(OC(F)F)cc1N1CCN(C)CC1` [Example 26, N-(4-(difluoromethoxy)-5-((4-(1-methyl-1H-thieno[3,2-c]pyrazol-3-yl)pyrimidin-2-yl)amino)-2-(4-methylpiperazin-1-yl)phenyl)acrylamide] in this work.

A GI50 [1] of roughly 0.0365 µM and a GI50 [2] of roughly 0.8 µM were found for `C=CC(=O)Nc1cc(Nc2cc(-c3nn(C)c4ccsc34)ccn2)c(OC)cc1N(C)CCN(C)C` [Example 41, N-(2-((2-(dimethylamino)ethylmethyl)amino)-4-methoxy-5-((4-(1-methyl-1H-thieno[3,2-c]pyrazol-3-yl)pyridin-2-yl)amino)phenyl)acrylamide] in this work.

A GI50 [1] of 0.0073 µM and a GI50 [2] of roughly 0.11 µM were found for `C=CC(=O)Nc1cc(Nc2nccc(-c3noc4ccccc34)n2)c(OC)cc1N(C)CCN(C)C` [Example 1] in this work.

A GI50 [1] of 0.0335 µM and a GI50 [2] of 0.625 µM were found for `C=CC(=O)Nc1cc(Nc2nccc(-c3c(C)n(C)c4sc(C)cc34)n2)c(OC)cc1N(C)CCN(C)C` [Example 31, N-(2-((2-(dimethylamino)ethyl)(methyl)amino)-4-methoxy-5-((4-(2,5,6-trimethyl-thieno[2,3-b]pyrrol-4-yl)pyrimidin-2-yl)amino)phenyl)acrylamide] in this work.
